Laboratory results from patent publication US20250333397A1 (REMIX THERAPEUTICS INC., priority 2021, published 2025).
Read-outs that look alike come from different tables or passages of the source.

How the values were obtained:
Type in all cases: cell-based, human
[1] = system: Target C mRNA; test: RT-qPCR splicing assay panel, Target C canonical junction (CJ) mRNA; conditions: canonical junction (CJ) mRNA, RT-qPCR panel, Table 4A, read-out: Target C, decrease in CJ mRNA levels, IC50
Outline: (§1)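 Cells: A673 (DMEM/10% FBS, plated 24 h before) or K562 (IMDM/10% FBS). Dosing: 11-pt 3-fold series, 10 uM top final, ≤0.25% DMSO, 24 h, 37 °C/5% CO2. Readout: RT-qPCR of CJ and AJ junctions, housekeeper-normalized, RQ = 2^(-ΔΔCt) vs DMSO.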

[2] = system: SMN2 mRNA; test: RT-qPCR splicing assay panel, SMN2 canonical junction (CJ) mRNA; conditions: canonical junction (CJ) mRNA, RT-qPCR panel, Table 4A, read-out: SMN2, decrease in CJ mRNA levels, IC50
Outline: as §1

[3] = system: MYB mRNA; test: RT-qPCR splicing assay, MYB canonical (CJ) and alternative (AJ) junction mRNA; conditions: for AC50: read-out: MYB AJ (AC50, increase in AJ mRNA)
Outline: as §1

[4] = system: HTT mRNA; test: RT-qPCR splicing assay, HTT canonical (CJ) and alternative (AJ) junction mRNA; conditions: for AC50: read-out: HTT AJ (AC50, increase in AJ mRNA)
Outline: as §1

[5] = Homo sapiens, 24 h, Table 3A, A673 or K562 cells, 24 h treatment
[6] = Homo sapiens, 24 h, Table 3A, A673 or K562 cells, 24 h treatment, read-out: MYB CJ (IC50, decrease in CJ mRNA)
[7] = Homo sapiens, canonical junction (CJ) mRNA, RT-qPCR panel, Table 4A, read-out: MYB, decrease in CJ mRNA levels, IC50
[8] = Homo sapiens, 24 h, Table 3A, A673 or K562 cells, 24 h treatment, read-out: HTT CJ (IC50, decrease in CJ mRNA)
[9] = Homo sapiens, canonical junction (CJ) mRNA, RT-qPCR panel, Table 4A, read-out: HTT, decrease in CJ mRNA levels, IC50
[10] = Table 3A, A673 or K562 cells, 24 h treatment
[11] = Table 3A, A673 or K562 cells, 24 h treatment, read-out: MYB CJ (IC50, decrease in CJ mRNA)
[12] = canonical junction (CJ) mRNA, RT-qPCR panel, Table 4A, read-out: MYB, decrease in CJ mRNA levels, IC50
[13] = Table 3A, A673 or K562 cells, 24 h treatment, read-out: HTT CJ (IC50, decrease in CJ mRNA)
[14] = canonical junction (CJ) mRNA, RT-qPCR panel, Table 4A, read-out: HTT, decrease in CJ mRNA levels, IC50

| Compound | IC50 ([1]; Homo sapiens) | IC50 ([2]; Homo sapiens) | IC50 [3, 6] | IC50 [3, 7] | IC50 [4, 8] | IC50 [4, 9] | AC50 [3, 5] | AC50 [4, 5] | IC50 [1] | IC50 [2] | AC50 [3, 10] | IC50 [3, 11] | IC50 [3, 12] | AC50 [4, 10] | IC50 [4, 13] | IC50 [4, 14] |
| --- | --- | --- | --- | --- | --- | --- | --- | --- | --- | --- | --- | --- | --- | --- | --- | --- |
| CC(C)(C)N[C@H]1CCN(c2ccc(-c3ccc(-c4cn[nH]c4)cc3O)nn2)C1 [Compound 261] | < 100 nM | < 100 nM | 100 to 1000 nM | 100 to 1000 nM | < 100 nM | < 100 nM | 100 to 1000 nM | < 100 nM |  |  |  |  |  |  |  |  |
| Oc1cc(-c2cn[nH]c2)ccc1-c1ccc(N2CCN[C@@H](C3CC3)C2)nn1 [Compound 263] | 100 to 1000 nM | < 100 nM | 100 to 1000 nM | 100 to 1000 nM | < 100 nM | < 100 nM | 100 to 1000 nM | < 100 nM |  |  |  |  |  |  |  |  |
| COc1cc(-c2ccc(-c3ccc(N4CC[C@H](NC5(C)CC5)C4)nn3)c(O)c2)cnn1 [Compound 265, 5-(6-methoxypyridazin-4-yl)-2-{6-[(3S)-3-[(1-methylcyclopropyl)amino]pyrrolidin-1-yl]pyridazin-3-yl}phenol] |  |  |  |  |  |  |  |  | < 100 nM | < 100 nM | < 100 nM | < 100 nM | < 100 nM | < 100 nM | < 100 nM | < 100 nM |
| COc1cc(-c2ccc(-c3ccc(N4CC[C@@H](NC5(C)CC5)C4)nn3)c(O)c2)cnn1 [Compound 266, 5-(6-methoxypyridazin-4-yl)-2-{6-[(3R)-3-[(1-methylcyclopropyl)amino]pyrrolidin-1-yl]pyridazin-3-yl}phenol] |  |  |  |  |  |  |  |  | 100 to 1000 nM | < 100 nM | 100 to 1000 nM | 100 to 1000 nM | 100 to 1000 nM | < 100 nM | < 100 nM | < 100 nM |
| Cc1ncc(-c2cc(O)c(-c3ccc(N4CC[C@H](N(C)C5CCC5)C4)nn3)cc2F)s1 [Compound 267] | < 100 nM | < 100 nM | < 100 nM | < 100 nM | < 100 nM | < 100 nM | < 100 nM | < 100 nM |  |  |  |  |  |  |  |  |
| Cc1ncc(-c2ccc(-c3ccc(N4CC[C@@H](N(C)C5CCC5)C4)nn3)c(O)c2)s1 [Compound 270, 2-{6-[(3R)-3-[cyclobutyl(methyl)amino]pyrrolidin-1-yl]pyridazin-3-yl}-5-(2-methyl-1,3-thiazol-5-yl) phenol] | > 10000 nM | 100 to 1000 nM | > 10000 nM | > 10000 nM | > 10000 nM | > 10000 nM | > 10000 nM | > 10000 nM |  |  |  |  |  |  |  |  |
| COc1cc(-c2cc(O)c(-c3ccc(N4CCC(N[C@H]5C[C@@H](F)C5)C4)nn3)cc2F)cnn1 (stereo partly shown) [Compound 273, 4-fluoro-5-(6-methoxypyridazin-4-yl)-2-[6-(3-{[(1s,3s)-3-fluorocyclobutyl]amino}pyrrolidin-1-yl)pyridazin-3-yl]phenol] | 100 to 1000 nM | < 100 nM | 100 to 1000 nM | 100 to 1000 nM | 100 to 1000 nM | 100 to 1000 nM | 100 to 1000 nM | 100 to 1000 nM |  |  |  |  |  |  |  |  |
| COc1cc(-c2cc(O)c(-c3ccc(N4CCC(N[C@H]5C[C@H](F)C5)C4)nn3)cc2F)cnn1 (stereo partly shown) [Compound 274] | 100 to 1000 nM | < 100 nM | 100 to 1000 nM | 100 to 1000 nM | < 100 nM | < 100 nM | 100 to 1000 nM | 100 to 1000 nM |  |  |  |  |  |  |  |  |
| COc1cc(-c2ccc(-c3ccc(N4CCC(C)(NC5CCC5)C4)nn3)c(O)c2)cnn1 (stereo not shown) [Compound 275] | < 100 nM | < 100 nM | 100 to 1000 nM | 100 to 1000 nM | < 100 nM | < 100 nM | 100 to 1000 nM | < 100 nM |  |  |  |  |  |  |  |  |
| Oc1cc(-c2cnnc(C3CC3)c2)ccc1-c1ccc(N2CC[C@H](NC3CCC3)C2)nn1 [Compound 280] | > 10000 nM | 100 to 1000 nM | 1000 to 10000 nM | 1000 to 10000 nM | 1000 to 10000 nM | 1000 to 10000 nM | > 10000 nM | 1000 to 10000 nM |  |  |  |  |  |  |  |  |

The next lines start with results.

| IC50 ([1]; Homo sapiens) | IC50 ([2]; Homo sapiens) | IC50 [3, 6] | IC50 [3, 7] | IC50 [4, 8] | IC50 [4, 9] | Compound | AC50 [3, 5] | AC50 [4, 5] | IC50 [1] | IC50 [2] | AC50 [3, 10] | IC50 [3, 11] | IC50 [3, 12] | AC50 [4, 10] | IC50 [4, 13] | IC50 [4, 14] |
| --- | --- | --- | --- | --- | --- | --- | --- | --- | --- | --- | --- | --- | --- | --- | --- | --- |
| < 100 nM | < 100 nM | < 100 nM | < 100 nM | < 100 nM | < 100 nM | CC(C)(C)N[C@@H]1CCN(c2ccc(-c3ccc(-c4cn[nH]c4)cc3O)nn2)C1 [Compound 262] | < 100 nM | < 100 nM |  |  |  |  |  |  |  |  |
| 100 to 1000 nM | < 100 nM | 100 to 1000 nM | 100 to 1000 nM | < 100 nM | < 100 nM | COc1cc(-c2ccc(-c3ccc(N4CC[C@@H](NC5CCC5)C4)nn3)c(O)c2)cnn1 [Compound 264] | 100 to 1000 nM | 100 to 1000 nM |  |  |  |  |  |  |  |  |
| > 10000 nM | 100 to 1000 nM | > 10000 nM | > 10000 nM | 100 to 1000 nM | 100 to 1000 nM | Cc1ncc(-c2ccc(-c3ccc(N4CC[C@H](N(C)C5CCC5)C4)nn3)c(O)c2)s1 [Compound 268] | > 10000 nM | 1000 to 10000 nM |  |  |  |  |  |  |  |  |
| < 100 nM | < 100 nM | < 100 nM | < 100 nM | < 100 nM | < 100 nM | Cc1ncc(-c2cc(O)c(-c3ccc(N4CC[C@@H](N(C)C5CCC5)C4)nn3)cc2F)s1 [Compound 269] | 100 to 1000 nM | < 100 nM |  |  |  |  |  |  |  |  |
| < 100 nM | < 100 nM | < 100 nM | < 100 nM | < 100 nM | < 100 nM | COc1cc(-c2ccc(-c3ccc(OC4CC(C)(C)NC(C)(C)C4)nn3)c(O)c2)cnn1 [Compound 271] | 100 to 1000 nM | < 100 nM |  |  |  |  |  |  |  |  |
| 100 to 1000 nM | < 100 nM | 100 to 1000 nM | 100 to 1000 nM | < 100 nM | < 100 nM | COc1cc(-c2cc(O)c(-c3ccc(OC4CC(C)(C)NC(C)(C)C4)nn3)cc2F)cnn1 [Compound 272] | 100 to 1000 nM | < 100 nM |  |  |  |  |  |  |  |  |
| 100 to 1000 nM | < 100 nM | 100 to 1000 nM | 100 to 1000 nM | < 100 nM | < 100 nM | CCN(C1CCC1)[C@H]1CCN(c2ccc(-c3ccc(-c4cnnc(OC)c4)cc3O)nn2)C1 [Compound 276] | 100 to 1000 nM | 100 to 1000 nM |  |  |  |  |  |  |  |  |
| > 10000 nM | 1000 to 10000 nM | 1000 to 10000 nM | 1000 to 10000 nM | 1000 to 10000 nM | 1000 to 10000 nM | CCc1cc(-c2ccc(-c3ccc(N4CC[C@@H](NC5CCC5)C4)nn3)c(O)c2)cnn1 [Compound 277, 2-{6-[(3R)-3-(cyclobutylamino)pyrrolidin-1-yl]pyridazin-3-yl}-5-(6-ethylpyridazin-4-yl)phenol] | > 10000 nM | > 10000 nM |  |  |  |  |  |  |  |  |
| > 10000 nM | 1000 to 10000 nM | 1000 to 10000 nM | 1000 to 10000 nM | 1000 to 10000 nM | 1000 to 10000 nM | CCc1cc(-c2ccc(-c3ccc(N4CC[C@H](NC5CCC5)C4)nn3)c(O)c2)cnn1 [Compound 278] | > 10000 nM | > 10000 nM |  |  |  |  |  |  |  |  |
| > 10000 nM | 100 to 1000 nM | > 10000 nM | > 10000 nM | 1000 to 10000 nM | 1000 to 10000 nM | Oc1cc(-c2cnnc(C3CC3)c2)ccc1-c1ccc(N2CC[C@@H](NC3CCC3)C2)nn1 [Compound 279, 2-{6-[(3R)-3-(cyclobutylamino)pyrrolidin-1-yl]pyridazin-3-yl}-5-(6-cyclopropylpyridazin-4-yl)phenol] | > 10000 nM | > 10000 nM |  |  |  |  |  |  |  |  |
